Source: patent US6673549B1, “Genes expressed in C3A liver cell cultures treated with steroids” (Incyte Corporation, priority 2000, dated 2004)

Test system: human C3A liver cells
Assay: Microarray differential gene expression in human C3A liver cell cultures treated with steroids
Format: cell-based
Source text: Incyte clones represent template sequences derived from the LWESEQ GOLD assembled human sequence database (Incyte Genomics). In cases where more than one clone was available for a particular template, the 5′-most clone in the template was used on the microarray. The HUMAN GENOME GEM series 1-4 microarrays (Incyte Genomics) contain 28,626 array elements which represent 10,068 annotated clusters and 18,558 unannotated clusters. For the UNIGEM series microarrays (Incyte Genomics), Incyte clones were mapped to non-redundant Unigene clusters (Unigene database (build 46), NCBI; Shuler (1997) J Mol Med 75:694-698), and the 5′ clone with the strongest BLAST alignment (at least 90% identity and 100 bp overlap) was chosen, verified, and used in the construction of the microarray. The UNIGEM V microarray (Incyte Genomics) contains 7075 array elements which represent 4610 annotated genes and 2,184 unannotated clusters.
To construct microarrays, cDNAs were amplified from bacterial cells using primers complementary to vector sequences flanking the cDNA insert. […] Amplified cDNAs were then purified using […]-400 columns (APB). Purified cDNAs were immobilized on polymer-coated glass slides. Glass microscope slides (Corning, Corning N.Y.) were cleaned by ultrasound in 0.1% SDS and acetone, with extensive distilled water washes between and after treatments. Glass slides were etched in 4% hydrofluoric acid (VWR Scientific Products, West Chester Pa.), washed thoroughly in distilled water, and coated with 0.05% aminopropyl silane (Sigma Aldrich) in 95% ethanol. Coated slides were cured in a 110° C. oven. cDNAs were applied to the coated glass substrate using a procedure described in U.S. Pat. No. 5,807,522. One microliter of the cDNA at an average concentration of 100 ng/μl was loaded into the open capillary printing element by a high-speed robotic apparatus which then deposited about 5 nl of cDNA per slide.
Microarrays were UV-crosslinked using a […] UV-crosslinker (Stratagene), and then washed at room temperature once in 0.2% SDS and three times in distilled water. Non-specific binding sites were blocked by incubation of microarrays in 0.2% casein in phosphate buffered saline (Tropix, Bedford Mich.) for 30 minutes at 60° C. followed by washes in 0.2% SDS and distilled water as before.
In all cases, mRNA from untreated early confluent C3A cells were prepared in parallel as described below.
Cells were harvested and lysed in 1 ml of TRIZOL reagent (5×10^6 cells/ml; Life Technologies). Lysates were vortexed thoroughly, incubated at room temperature for 2-3 minutes, and extracted with 0.5 ml chloroform. The extract was mixed, incubated at room temperature for 5 minutes, and centrifuged at 15,000 rpm for 15 minutes at 4° C. The aqueous layer was collected, and an equal volume of isopropanol was added. Samples were mixed, incubated at room temperature for 10 minutes, and centrifuged at 15,000 rpm for 20 minutes at 4° C. The supernatant was removed, and the RNA pellet was washed with 1 ml of 70% ethanol, centrifuged at 15,000 rpm at 4° C., and resuspended in RNAse-free water. The concentration of the RNA was determined by measuring the optical density at 260 nm.
Poly(A) RNA was prepared using an OLIGOTEX mRNA kit (Qiagen) with the following modifications: OLIGOTEX beads were washed in tubes instead of on spin columns, resuspended in elution buffer, and then loaded onto spin columns to recover mRNA. To obtain maximum yield, the mRNA was eluted twice.
Each poly(A) RNA sample was reverse transcribed using MMLV reverse-transcriptase, 0.05 pg/μl oligo-d(T) primer (21mer), 1× first strand buffer, 0.03 units/ul RNAse inhibitor, 500 uM dATP, 500 uM dGTP, 500 uM dTTP, 40 uM dCTP, and 40 uM either dCTP-Cy3 or dCTP-Cy5 (APB).

Structure (SMILES): C#C[C@]1(O)CC[C@H]2[C@@H]3CCC4=Cc5oncc5C[C@]4(C)[C@H]3CC[C@@]21C [danazol]
- Ave DE [log2] (C3A treated with steroid) (Clone ID 1500810): −0.41 log2
- Ave DE [log2] (C3A treated with steroid) (Clone ID 2607834): 0.92 log2
- Ave DE [log2] (C3A treated with steroid) (Clone ID 5038177): 0.74 log2

Structure (SMILES): C[C@H]1C[C@H]2[C@@H]3CCC4=CC(=O)C=C[C@]4(C)[C@@]3(Cl)[C@@H](O)C[C@]2(C)[C@@]1(O)C(=O)CO [beclomethasane]
- Ave DE [log2] (C3A treated with steroid) (Clone ID 5398701): 0.82 log2

Structure (SMILES): CC#C[C@]1(O)CC[C@H]2[C@@H]3CCC4=CC(=O)CCC4=C3[C@@H](c3ccc(N(C)C)cc3)C[C@@]21C [Mifepristone]
- Ave DE [log2] (C3A treated with steroid) (Clone ID 4543123): −1.20 log2
- Ave DE [log2] (C3A treated with steroid) (Clone ID 5426158): −0.93 log2

Structure (SMILES): C[C@H]1C[C@H]2[C@@H]3CCC4=CC(=O)C=C[C@]4(C)[C@@]3(F)[C@@H](O)C[C@]2(C)[C@@]1(O)C(=O)CO [betamethasone]
- Ave DE [log2] (C3A treated with steroid) (Clone ID 220378): 0.57 log2
- Ave DE [log2] (C3A treated with steroid) (Clone ID 615776): 1.11 log2
- Ave DE [log2] (C3A treated with steroid) (Clone ID 619447): 0.33 log2
- Ave DE [log2] (C3A treated with steroid) (Clone ID 686993): 0.51 log2
- Ave DE [log2] (C3A treated with steroid) (Clone ID 689296): 1.12 log2
- Ave DE [log2] (C3A treated with steroid) (Clone ID 1323327): 1.00 log2
- Ave DE [log2] (C3A treated with steroid) (Clone ID 1329625): 0.91 log2
- Ave DE [log2] (C3A treated with steroid) (Clone ID 1496011): 0.60 log2
- Ave DE [log2] (C3A treated with steroid) (Clone ID 1501410): −0.98 log2
- Ave DE [log2] (C3A treated with steroid) (Clone ID 1600180): 0.77 log2
- Ave DE [log2] (C3A treated with steroid) (Clone ID 1798594): 1.37 log2
- Ave DE [log2] (C3A treated with steroid) (Clone ID 1816768): 0.24 log2
- Ave DE [log2] (C3A treated with steroid) (Clone ID 1824860): 0.70 log2
- Ave DE [log2] (C3A treated with steroid) (Clone ID 1857044): 0.89 log2
- Ave DE [log2] (C3A treated with steroid) (Clone ID 1951845): 1.02 log2
- Ave DE [log2] (C3A treated with steroid) (Clone ID 2025128): 1.20 log2
- Ave DE [log2] (C3A treated with steroid) (Clone ID 2046717): 0.83 log2
- Ave DE [log2] (C3A treated with steroid) (Clone ID 2078880): −0.75 log2
- Ave DE [log2] (C3A treated with steroid) (Clone ID 2170820): 1.30 log2
- Ave DE [log2] (C3A treated with steroid) (Clone ID 2173002): 0.98 log2
- Ave DE [log2] (C3A treated with steroid) (Clone ID 2173973): 0.81 log2
- Ave DE [log2] (C3A treated with steroid) (Clone ID 2189061): 0.23 log2
- Ave DE [log2] (C3A treated with steroid) (Clone ID 2222155): 0.50 log2
- Ave DE [log2] (C3A treated with steroid) (Clone ID 2343836): 0.63 log2
- Ave DE [log2] (C3A treated with steroid) (Clone ID 2404746): 1.46 log2
- Ave DE [log2] (C3A treated with steroid) (Clone ID 2407620): 0.02 log2
- Ave DE [log2] (C3A treated with steroid) (Clone ID 2430165): 0.68 log2
- Ave DE [log2] (C3A treated with steroid) (Clone ID 2482388): 1.14 log2
- Ave DE [log2] (C3A treated with steroid) (Clone ID 2660756): 1.26 log2
- Ave DE [log2] (C3A treated with steroid) (Clone ID 2687356): 1.23 log2
- Ave DE [log2] (C3A treated with steroid) (Clone ID 2695371): 0.95 log2
- Ave DE [log2] (C3A treated with steroid) (Clone ID 2703282): −0.85 log2
- Ave DE [log2] (C3A treated with steroid) (Clone ID 2734007): 1.04 log2
- Ave DE [log2] (C3A treated with steroid) (Clone ID 2753065): 0.75 log2
- Ave DE [log2] (C3A treated with steroid) (Clone ID 3229449): 1.05 log2
- Ave DE [log2] (C3A treated with steroid) (Clone ID 3474091): 0.23 log2
- Ave DE [log2] (C3A treated with steroid) (Clone ID 3528232): 0.80 log2
- Ave DE [log2] (C3A treated with steroid) (Clone ID 3729593): 0.55 log2
- Ave DE [log2] (C3A treated with steroid) (Clone ID 3876612): 0.19 log2
- Ave DE [log2] (C3A treated with steroid) (Clone ID 3973687): 1.47 log2
- Ave DE [log2] (C3A treated with steroid) (Clone ID 4087621): 1.09 log2
- Ave DE [log2] (C3A treated with steroid) (Clone ID 4215034): 1.50 log2
- Ave DE [log2] (C3A treated with steroid) (Clone ID 4403805): 1.19 log2
- Ave DE [log2] (C3A treated with steroid) (Clone ID 4855265): 1.24 log2
- Ave DE [log2] (C3A treated with steroid) (Clone ID 5206821): 0.50 log2
- Ave DE [log2] (C3A treated with steroid) (Clone ID 5398701): 1.10 log2
- Ave DE [log2] (C3A treated with steroid) (Clone ID 5521873): 0.77 log2
- Ave DE [log2] (C3A treated with steroid) (Clone ID 5543385): 1.15 log2

Structure (SMILES): C[C@]12C=CC(=O)C=C1CC[C@@H]1[C@@H]2C(=O)C[C@@]2(C)[C@H]1CC[C@]2(O)C(=O)CO [prednisone]
- Ave DE [log2] (C3A treated with steroid) (Clone ID 998615): 0.91 log2
- Ave DE [log2] (C3A treated with steroid) (Clone ID 1329625): 0.42 log2
- Ave DE [log2] (C3A treated with steroid) (Clone ID 1401312): −0.82 log2
- Ave DE [log2] (C3A treated with steroid) (Clone ID 1496011): 0.51 log2
- Ave DE [log2] (C3A treated with steroid) (Clone ID 1611629): 0.94 log2
- Ave DE [log2] (C3A treated with steroid) (Clone ID 1679595): 0.99 log2
- Ave DE [log2] (C3A treated with steroid) (Clone ID 1716458): 1.03 log2
- Ave DE [log2] (C3A treated with steroid) (Clone ID 1740179): 0.86 log2
- Ave DE [log2] (C3A treated with steroid) (Clone ID 1946155): 0.92 log2
- Ave DE [log2] (C3A treated with steroid) (Clone ID 1951845): 0.79 log2
- Ave DE [log2] (C3A treated with steroid) (Clone ID 2086783): −1.13 log2
- Ave DE [log2] (C3A treated with steroid) (Clone ID 2088104): −1.15 log2
- Ave DE [log2] (C3A treated with steroid) (Clone ID 2095329): −1.21 log2
- Ave DE [log2] (C3A treated with steroid) (Clone ID 2227273): 1.01 log2
- Ave DE [log2] (C3A treated with steroid) (Clone ID 2252884): −1.03 log2
- Ave DE [log2] (C3A treated with steroid) (Clone ID 2253102): −1.13 log2
- Ave DE [log2] (C3A treated with steroid) (Clone ID 2269058): −1.06 log2
- Ave DE [log2] (C3A treated with steroid) (Clone ID 2285521): −1.09 log2
- Ave DE [log2] (C3A treated with steroid) (Clone ID 2287703): −1.07 log2
- Ave DE [log2] (C3A treated with steroid) (Clone ID 2430165): 0.23 log2
- Ave DE [log2] (C3A treated with steroid) (Clone ID 2607834): 0.29 log2
- Ave DE [log2] (C3A treated with steroid) (Clone ID 2698777): −1.25 log2
- Ave DE [log2] (C3A treated with steroid) (Clone ID 2734007): 0.88 log2
- Ave DE [log2] (C3A treated with steroid) (Clone ID 2908212): 0.42 log2
- Ave DE [log2] (C3A treated with steroid) (Clone ID 3960194): 1.01 log2
- Ave DE [log2] (C3A treated with steroid) (Clone ID 4252872): 0.77 log2
- Ave DE [log2] (C3A treated with steroid) (Clone ID 4543123): 1.27 log2
- Ave DE [log2] (C3A treated with steroid) (Clone ID 4630674): 0.86 log2
- Ave DE [log2] (C3A treated with steroid) (Clone ID 4894508): −1.03 log2
- Ave DE [log2] (C3A treated with steroid) (Clone ID 5102951): 0.85 log2
- Ave DE [log2] (C3A treated with steroid) (Clone ID 5326983): 0.50 log2
- Ave DE [log2] (C3A treated with steroid) (Clone ID 5543385): 1.00 log2

Structure (SMILES): C[C@@H]1C[C@H]2[C@@H]3CCC4=CC(=O)C=C[C@]4(C)[C@@]3(F)[C@@H](O)C[C@]2(C)[C@@]1(O)C(=O)CO [dexamethasane]
- Ave DE [log2] (C3A treated with steroid) (Clone ID 2253102): −1.20 log2

Structure (SMILES): C#C[C@]1(O)CC[C@H]2[C@@H]3CCC4=Cc5oncc5C[C@]4(C)[C@H]3CC[C@@]21C [donozol]
- Ave DE [log2] (C3A treated with steroid) (Clone ID 2407620): −0.26 log2
- Ave DE [log2] (C3A treated with steroid) (Clone ID 3474091): −0.29 log2
